Test results taken from patent publication US20230041996A1, “CALCIUM-SENSING RECEPTOR AGONIST COMPOUND AND APPLICATION THEREOF” (BEIJING TUO JIE BIOPHARMACEUTICAL CO. LTD., priority 2019, published 2023).
Square brackets hold non-standard residues; d marks the D form. Peptide text beside a SMILES is read from it. * marks the point of attachment. dPhe(4-Me) = Cc1ccc(C[C@@H](N)C(=O)O)cc1; Cys(free,S-linked) = N[C@@H](CS*)C(=O)O; d(hLeu) = CC(C)CC[C@@H](N)C(=O)O; dTle = CC(C)(C)[C@@H](N)C(=O)O

Columns and labels:
[1] = test system: rat peritoneal mast cells; assay: In vitro histamine release in rat peritoneal mast cells (histamine ELISA); format: cell-based; conditions: for Relative fold of histamine release in vitro: test compound final concentration 10 μM, 15 min at 37° C., relative to PBS buffer (1.00)
Protocol: To evaluate the in vitro histamine release levels induced by some of the test example compounds, rat peritoneal mast cells were collected by lavaging rat peritoneum with a lavage buffer (cold HBSS+25 mM HEPES containing heparin 5 U/mL, pH 7.4). After collection, the cells were centrifuged, and the lavage buffer was discarded. The cells were resuspended and washed twice with a stimulation buffer (HBSS+25 mM HEPES+1 mM CaCl2), pH 7.4). The cells were plated at a density of 10^5 cell/well (200 μL/well) and incubated at 37° C. for 15 min with positive control compound 48/80 (final concentration: 4 μg/mL), test example compounds (final concentration: 10 μM) or vehicle control. The cells were centrifuged, and cell supernatant was collected and tested for histamine concentration according to LDN Histamine ELISA kit (BAE-1000) instructions.

[2] = target: T1, human calcium-sensing receptor (CaSR) (Homo sapiens, UniProt P41180); assay: Agonist activity on human calcium-sensing receptor (IP-One HTRF in stably transfected HEK293/CaSR cells); format: cell-based; conditions: HEK293/CaSR cells, IP-One production, 60 min at 37° C., CaCl2 1.2 mM; read-out: EC50 for calcium-sensing receptor
T1 construct: host or cells: HEK293
T1 sequence (P41180 20-1078): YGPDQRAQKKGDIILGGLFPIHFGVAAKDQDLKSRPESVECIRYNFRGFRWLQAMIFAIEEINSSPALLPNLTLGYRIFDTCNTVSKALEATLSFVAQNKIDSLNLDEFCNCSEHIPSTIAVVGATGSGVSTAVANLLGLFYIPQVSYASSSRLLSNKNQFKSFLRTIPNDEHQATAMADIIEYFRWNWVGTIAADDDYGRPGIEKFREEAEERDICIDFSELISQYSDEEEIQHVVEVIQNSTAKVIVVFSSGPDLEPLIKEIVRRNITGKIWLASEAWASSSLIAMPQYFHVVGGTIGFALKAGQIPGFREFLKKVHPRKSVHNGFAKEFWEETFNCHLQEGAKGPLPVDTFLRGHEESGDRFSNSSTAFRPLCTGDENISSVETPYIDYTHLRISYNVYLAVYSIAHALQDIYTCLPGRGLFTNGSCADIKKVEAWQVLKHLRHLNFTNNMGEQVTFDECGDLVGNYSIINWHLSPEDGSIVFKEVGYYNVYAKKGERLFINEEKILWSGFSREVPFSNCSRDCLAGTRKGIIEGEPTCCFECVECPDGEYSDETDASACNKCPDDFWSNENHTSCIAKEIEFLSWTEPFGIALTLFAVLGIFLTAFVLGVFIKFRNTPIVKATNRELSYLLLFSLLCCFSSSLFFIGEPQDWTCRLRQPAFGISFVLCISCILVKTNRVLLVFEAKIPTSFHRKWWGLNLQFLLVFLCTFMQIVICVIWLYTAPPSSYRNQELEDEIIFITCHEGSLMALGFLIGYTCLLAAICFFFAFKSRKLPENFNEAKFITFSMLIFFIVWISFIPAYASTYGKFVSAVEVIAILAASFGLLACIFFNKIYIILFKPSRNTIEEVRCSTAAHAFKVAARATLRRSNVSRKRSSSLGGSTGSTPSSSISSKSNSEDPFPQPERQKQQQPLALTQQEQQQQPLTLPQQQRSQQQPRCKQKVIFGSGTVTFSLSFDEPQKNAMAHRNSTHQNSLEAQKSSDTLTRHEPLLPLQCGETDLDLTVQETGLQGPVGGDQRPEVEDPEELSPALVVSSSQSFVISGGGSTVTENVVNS
Protocol: 3.1.1 Objective: The test example is intended to measure the agonist activity of compounds 1-38 on the human calcium-sensing receptor (CaSR).
Stably transfected HEK293/CaSR cells (source: Pharmaron) were cultured in a complete medium (composition: DMEM, high glucose+10% FBS+2 mM GlutaMAX+1× Penicillin-Streptomycin+200 μg/mL Hygromycin B) and incubated at 37° C./5% CO2 till 70%-90% cell confluence. The cells were digested with TrypLE, inoculated into 384-well cell culture plates, and cultured overnight at 37° C./5% CO2. After buffer exchange, stimulation buffer (HEPES 10 mM, MgCl2 0.5 mM, KCl 4.2 mM, NaCl 146 mM, glucose 5.5 mM, LiCl 50 mM, CaCl2 1.2 mM) and various concentrations of the test example compounds were added and incubated at 37° C. for 60 min. Production of IP-One in cells was detected according to the procedures in the Cisbio IP-One Tb kit instructions. The EC50 values of various test example compounds in influencing human calcium-sensing receptor was calculated by software after the raw data of the example compounds were collected, so as to evaluate the agonist activity of the example compounds on human calcium-sensing receptor.
HTRF signal was read by an EnVision detector with an excitation wavelength of 320 nm and emission wavelengths of 620 nm and 665 nm. The signal ratio (665 nm/620 nm×10,000) was calculated and fitted non-linearly to the sample concentration in GraphPad Prism 6 using a four-parameter equation to give EC50 values of the test example compounds 1-38.

[3] = test system: human red blood cells; assay: Hemolytic effect on human red blood cells in vitro (absorbance at 540 nm); format: cell-based; conditions: 37° C., 1 h, FIG. 1
Protocol: To evaluate the hemolytic effect of the compounds disclosed herein on red blood cells in vitro, human whole blood (100 μL) was taken and mixed with a phosphate buffer. The mixture was centrifuged at 4° C. for 10 min and the supernatant was discarded. The red blood cells were resuspended in PBS buffer (900 μL) and centrifuged at 4° C. for 10 min with the supernatant discarded, and the procedures above were repeated once. The test example compounds were dissolved in 1×PBS buffer to a final concentration of 100 μg/mL. The red blood cells were resuspended in solutions of various test example compounds, an octylphenoxy poly(ethyleneoxy)ethanol-100 solution or PBS buffer, and incubated at 37° C. for 1 h. After incubation, the cells were centrifuged at 4° C. for 10 min and the supernatant (100 μL) was pipetted and transferred to a 96-well plate. The absorbance at 540 nm was detected for evaluating the hemolytic effect of the test example compounds on red blood cells in vitro.

[4] = test system: 5/6 nephrectomized rats; assay: In vivo efficacy in 5/6 nephrectomized rat model after continuous administration (plasma parathyroid hormone, serum calcium)
Description: 3.5.1 Objective: to evaluate the efficacy of some of the compounds disclosed herein in reducing plasma parathyroid hormone level and serum calcium level after continuous administration in a 5/6 nephrectomized rat model.
The rats were adapted. After anesthesia, ⅔ of the left kidney was surgically resected, and after 1 week of recovery, the right kidney was resected to establish the 5/6 nephrectomized rat model. After the second resection, the animals were normally fed for 2 weeks, tested for creatinine (CREA) and plasma parathyroid hormone level, and randomized as per the parathyroid hormone level into 4 groups of 10, including normal saline group, compound 17—low dose group, compound 17—high dose group and etelcalcetide group. After randomization, the normal saline group, compound 17—low dose group, compound 17—high dose group and etelcalcetide group were respectively administered with 1 dose of normal saline, 1 mg/kg of compound 17, 2 mg/kg of compound 17 and 1 mg/kg of etelcalcetide through the tail vein daily for 28 days. During the treatment period, parameters such as animal weight, plasma parathyroid hormone level and serum calcium were detected. The first day of treatment was taken as day 1.

| Compound | Relative fold of histamine release in vitro [1] | EC50 [2] [µM] | hemolytic effect on red blood cells ([3]; 100 μg/mL in PBS) | histamine release levels in rat peritoneal mast cells in vitro relative to etelcalcetide ([1]; 10 μM, comparison with etelcalcetide) | hemolytic effect on red blood cells ([3]; positive control solution) | serum calcium reduction ([4]; after administration on days 1, 14 and 28) | extent of serum calcium reduction with the period of treatment ([4]; minimum of serum calcium on days 14 and 28 compared to day 1) |
| --- | --- | --- | --- | --- | --- | --- | --- |
| CC(=O)N[C@H](CSSC[C@H](N)C(=O)O)C(=O)N[C@H](CCCNC(=N)N)C(=O)N[C@H](CCCNC(=N)N)C(=O)N[C@H](Cc1ccc(C)cc1)C(=O)N[C@H](CCCNC(=N)N)C(=O)N[C@H](C)C(=O)N[C@H](CCCNC(=N)N)C(N)=O [Compound 12, Ac-c(C)-r-r-[D-Phe(4-CH3)]-r-a-r-NH2] (Ac-[dC](Cys(free,S-linked))[dR][dR][dPhe(4-Me)][dR][dA][dR]-NH2) | 2.81 | 1.28 | no significant hemolytic effect |  |  |  |  |
| CC(=O)N[C@H](CSSC[C@H](N)C(=O)O)C(=O)N[C@H](CCCNC(=N)N)C(=O)N[C@H](CCCNC(=N)N)C(=O)N[C@@H](C(=O)N[C@H](CCCNC(=N)N)C(=O)N[C@H](CO)C(=O)N[C@H](CCCNC(=N)N)C(N)=O)C(C)C [Compound 29, Ac-c(C)-r-r-v-r-s-r-NH2] (Ac-[dC](Cys(free,S-linked))[dR][dR][dV][dR][dS][dR]-NH2) | 0.99 | 9.8 | no significant hemolytic effect | reduction in histamine release levels |  |  |  |
| CC(=O)N[C@H](CSSC[C@H](N)C(=O)O)C(=O)N[C@H](CCCNC(=N)N)C(=O)N[C@H](CCCNC(=N)N)C(=O)N[C@H](CCC(C)C)C(=O)N[C@H](CCCNC(=N)N)C(=O)N[C@H](C)C(=O)N[C@H](CCCNC(=N)N)C(N)=O [Compound 19, Ac-c(C)-r-r-(D-hLeu)-r-a-r-NH2] (Ac-[dC](Cys(free,S-linked))[dR][dR][d(hLeu)][dR][dA][dR]-NH2) | 2.07 | 2.05 | no significant hemolytic effect |  |  |  |  |
| octylphenoxy poly(ethyleneoxy)ethanol-100 [reference compound] |  |  |  |  | significant hemolytic effect |  |  |
| CC(=O)N[C@H](CSSC[C@H](N)C(=O)O)C(=O)N[C@H](C)C(=O)N[C@H](CCCNC(=N)N)C(=O)N[C@H](CCCNC(=N)N)C(=O)N[C@H](CCCNC(=N)N)C(=O)N[C@H](C)C(=O)N[C@H](CCCNC(=N)N)C(N)=O [Etelcalcetide, Ac-c(C)-a-r-r-r-a-r-NH2, reference compound] | 1.70 | 6.78 |  |  |  | reversible serum calcium reduction | did not increase with the period of treatment |
| CC(=O)N[C@H](CSSC[C@H](N)C(=O)O)C(=O)N[C@H](CCCNC(=N)N)C(=O)N[C@H](CCCNC(=N)N)C(=O)N[C@@H](C(=O)N[C@H](CCCNC(=N)N)C(=O)N[C@H](C)C(=O)N[C@H](CCCNC(=N)N)C(N)=O)C(C)(C)C [Compound 18, Ac-c(C)-r-r-(D-Tle)-r-a-r-NH2] (Ac-[dC](Cys(free,S-linked))[dR][dR][dTle][dR][dA][dR]-NH2) | 1.24 | 13.4 |  |  |  |  |  |
| CC(=O)N[C@H](CSSC[C@H](N)C(=O)O)C(=O)N[C@H](Cc1c[nH]cn1)C(=O)N[C@H](CCCNC(=N)N)C(=O)N[C@H](CCCNC(=N)N)C(=O)N[C@H](CCCNC(=N)N)C(=O)NCC(=O)N[C@H](CCCNC(=N)N)C(N)=O [Compound 7, Ac-c(C)-h-r-r-r-G-r-NH2] (Ac-[dC](Cys(free,S-linked))[dH][dR][dR][dR]G[dR]-NH2) | 2.24 | 18.6 |  |  |  |  |  |
| CC(=O)N[C@H](CSSC[C@H](N)C(=O)O)C(=O)N[C@H](CCCNC(=N)N)C(=O)N[C@H](CCCNC(=N)N)C(=O)N[C@@H](C(=O)N[C@H](CCCNC(=N)N)C(=O)N[C@H](CO)C(=O)N[C@H](CCCNC(=N)N)C(N)=O)C(C)(C)C [Compound 37, Ac-c(C)-r-r-(D-Tle)-r-s-r-NH2] (Ac-[dC](Cys(free,S-linked))[dR][dR][dTle][dR][dS][dR]-NH2) | 2.23 | 15.4 |  |  |  |  |  |
| CC(=O)N[C@H](CSSC[C@H](N)C(=O)O)C(=O)N[C@H](CCCNC(=N)N)C(=O)N[C@H](CCCNC(=N)N)C(=O)N[C@H](CCC(C)C)C(=O)N[C@H](CCCNC(=N)N)C(=O)NCC(=O)N[C@H](CCCNC(=N)N)C(N)=O [Compound 34, Ac-c(C)-r-r-(D-hLeu)-r-G-r-NH2] (Ac-[dC](Cys(free,S-linked))[dR][dR][d(hLeu)][dR]G[dR]-NH2) | 2.28 | 12.2 |  |  |  |  |  |
